Laboratory results: US12139492B2 (Endotarget Inc., priority 2021, dated 2024)
Read-outs that look alike come from different tables or passages of the source.

Columns and labels:
Mino cells = assay: Antiproliferative effect, MTS cell viability assay, Mino cells; type: cell-based; settings: Homo sapiens, MINO, Mino mantle cell lymphoma cells; read-out: IC50 (anti-proliferation) Mino cells
Method in brief: (§1)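 Mino and JeKo-1 mantle B-cell lymphoma lines were exposed to compound at 0, 0.001, 0.01, 0.1, 1 and 10 μM for 72 h. Viability was read by MTS reduction to formazan, measured as absorbance at 490 nm.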

JeKo-1 cells = assay: Antiproliferative effect, MTS cell viability assay, JeKo-1 cells; type: cell-based; settings: Homo sapiens; JeKo-1 mantle cell lymphoma cells; read-out: IC50 (anti-proliferation) JeKO-1 cells
Method in brief: as §1

BTK = BTK (Homo sapiens, UniProt Q06187); assay: Degradation of BTK protein in Namalwa cells (Western blot; DC50, Dmax); settings: for DC50: cell line not given
Chain of BTK (Q06187 whole entry): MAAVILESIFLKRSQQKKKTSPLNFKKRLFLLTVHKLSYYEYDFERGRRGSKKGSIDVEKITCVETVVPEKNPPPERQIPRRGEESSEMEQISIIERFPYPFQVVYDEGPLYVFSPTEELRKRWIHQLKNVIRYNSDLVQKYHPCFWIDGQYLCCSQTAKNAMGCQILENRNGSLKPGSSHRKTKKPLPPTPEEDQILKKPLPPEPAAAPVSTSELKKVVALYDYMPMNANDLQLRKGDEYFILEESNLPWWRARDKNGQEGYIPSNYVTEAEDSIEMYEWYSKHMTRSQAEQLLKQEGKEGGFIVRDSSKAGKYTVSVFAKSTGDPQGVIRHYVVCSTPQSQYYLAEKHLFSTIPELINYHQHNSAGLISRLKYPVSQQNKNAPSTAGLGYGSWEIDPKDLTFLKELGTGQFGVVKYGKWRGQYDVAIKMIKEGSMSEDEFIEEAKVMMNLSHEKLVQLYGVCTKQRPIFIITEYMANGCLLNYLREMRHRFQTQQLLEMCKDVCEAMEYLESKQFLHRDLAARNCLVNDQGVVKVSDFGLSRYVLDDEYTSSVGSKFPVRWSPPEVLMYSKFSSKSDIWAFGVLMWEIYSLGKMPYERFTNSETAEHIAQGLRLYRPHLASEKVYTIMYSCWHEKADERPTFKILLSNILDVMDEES

[1] = read-out: DC50 (BTK degradation), concentration giving 50% reduction of BTK expression level
[2] = read-out: Dmax (BTK degradation)

Compound | Dmax (BTK) [%] | DC50 (BTK; BTK degradation) [nM] | DC50 (BTK; [1]) [nM] | Dmax (BTK; [2]) [%] | IC50 (Mino cells) [nM] | IC50 (JeKo-1 cells) [µM]
NC(=O)c1c(-c2ccc(Oc3ccccc3)cc2)nn2c1NCCC2C1CCN(C2CCN(CCN3CCC(c4ccc5c(c4)C(=O)N(C4CCC(=O)NC4=O)C5=O)CC3)CC2)CC1 (stereo not shown) [Compound 311, 7-(1′-(2-(4-(2-(2,6-dioxopiperidin-3-yl)-1,3-dioxoisoindolin-5-yl)piperidin-1-yl)ethyl)-[1,4′-bipiperidin]-4-yl)-2-(4-phenoxyphenyl)-4,5,6,7-tetrahydropyrazolo[1,5-a]pyrimidine-3-carboxamide] | > 75 | > 50 | – | – | > 10000 | > 10
Nc1ncnc2c1c(-c1ccc(Oc3ccccc3)cc1)nn2C1CCN(C2CCN(CC3CCN(c4ccc(N5CCC(=O)NC5=O)cc4)CC3)CC2)CC1 [Compound 568, 1-(4-(4-((4-(4-amino-3-(4-phenoxyphenyl)-1H-pyrazolo[3,4-d]pyrimidin-1-yl)-[1,4′-bipiperidin]-1′-yl)methyl)piperidin-1-yl)phenyl)dihydropyrimidine-2,4(1H,3H)-dione] | – | – | > 50 | > 75 | 1000 to 10000 | 1 to 10
Nc1ncnc2c1c(-c1ccc(Oc3ccccc3)cc1)nn2C1CCN(C2CCN(CCCCC#Cc3ccc(N4CCC(=O)NC4=O)cc3)CC2)CC1 [Compound 535, 1-(4-(6-(4-(4-amino-3-(4-phenoxyphenyl)-1H-pyrazolo[3,4-d]pyrimidin-1-yl)-[1,4′-bipiperidin]-1′-yl)hex-1-yn-1-yl)phenyl)dihydropyrimidine-2,4(1H,3H)-dione] | – | – | > 50 | > 50 | > 10000 | > 10
NC(=O)c1c(-c2ccc(Oc3ccccc3)cc2)nn2c1NCC[C@H]2C1CCN(C(=O)N2CCC(CC3CCN(c4ccc5c(c4)C(=O)N(C4CCC(=O)NC4=O)C5=O)CC3)CC2)CC1 (stereo partly drawn) [Compound 293, (7S)-7-(1-(4-((1-(2-(2,6-dioxopiperidin-3-yl)-1,3-dioxoisoindolin-5-yl)piperidin-4-yl)methyl)piperidine-1-carbonyl)piperidin-4-yl)-2-(4-phenoxyphenyl)-4,5,6,7-tetrahydropyrazolo[1,5-a]pyrimidine-3-carboxamide] | > 90 | 10 to 50 | – | – | < 1000 | 1 to 10
NC(=O)c1c(-c2ccc(Oc3ccccc3)cc2)nn2c1NCCC2C1CCN(C(=O)N2CCC(CC3CCN(c4ccc5c(c4)C(=O)N(C4CCC(=O)NC4=O)C5=O)CC3)CC2)CC1 (stereo not shown) [Compound 277, 7-(1-(4-((1-(2-(2,6-dioxopiperidin-3-yl)-1,3-dioxoisoindolin-5-yl)piperidin-4-yl)methyl)piperidine-1-carbonyl)piperidin-4-yl)-2-(4-phenoxyphenyl)-4,5,6,7-tetrahydropyrazolo[1,5-a]pyrimidine-3-carboxamide] | > 90 | < 10 | – | – | < 1000 | 1 to 10
NC(=O)c1c(-c2ccc(Oc3ccccc3)cc2)nn2c1NCC[C@H]2C1CCN(C2CCN(C(=O)N3CCC(CC4CCN(c5ccc6c(c5)CN(C5CCC(=O)NC5=O)C6=O)CC4)CC3)CC2)CC1 (stereo partly drawn) [Compound 394, (7S)-7-(1′-(4-((1-(2-(2,6-dioxopiperidin-3-yl)-1-oxoisoindolin-5-yl)piperidin-4-yl)methyl)piperidine-1-carbonyl)-[1,4′-bipiperidin]-4-yl)-2-(4-phenoxyphenyl)-4,5,6,7-tetrahydropyrazolo[1,5-a]pyrimidine-3-carboxamide] | – | – | 10 to 50 | > 75 | < 1000 | 1 to 10
Nc1ncnc2c1c(-c1ccc(Oc3ccccc3)cc1)nn2C1CCN(CCCN2CCC(CN3CCN(c4ccc(NC5CCC(=O)NC5=O)cc4)CC3)C2)CC1 (stereo not shown) [Compound 565, 3-((4-(4-((1-(3-(4-(4-amino-3-(4-phenoxyphenyl)-1H-pyrazolo[3,4-d]pyrimidin-1-yl)piperidin-1-yl)propyl)pyrrolidin-3-yl)methyl)piperazin-1-yl)phenyl)amino)piperidine-2,6-dione] | – | – | 10 to 50 | > 75 | < 1000 | < 1

Second part, led by results:

Dmax (BTK) [%] | DC50 (BTK; BTK degradation) [nM] | DC50 (BTK; [1]) [nM] | Dmax (BTK; [2]) [%] | Compound | IC50 (Mino cells) [nM] | IC50 (JeKo-1 cells) [µM]
> 75 | > 50 | – | – | Nc1ncnc2c1c(-c1ccc(Oc3ccccc3)cc1)nn2C1CCN(CC2CCN(CCCN3CCN(c4ccc5c(c4)C(=O)N(C4CCC(=O)NC4=O)C5=O)CC3)CC2)CC1 (stereo not shown) [Compound 207] | > 10000 | > 10
> 90 | < 10 | – | – | NC(=O)c1c(-c2ccc(Oc3ccccc3)cc2)nn2c1NCCC2C1CCN(C(=O)N2CCC(CN3CCN(c4ccc5c(c4)C(=O)N(C4CCC(=O)NC4=O)C5=O)CC3)CC2)CC1 (stereo not shown) [Compound 275, 7-(1-(4-((4-(2-(2,6-dioxopiperidin-3-yl)-1,3-dioxoisoindolin-5-yl)piperazin-1-yl)methyl)piperidine-1-carbonyl)piperidin-4-yl)-2-(4-phenoxyphenyl)-4,5,6,7-tetrahydropyrazolo[1,5-a]pyrimidine-3-carboxamide] | 1000 to 10000 | 1 to 10
– | – | < 10 | > 90 | Nc1ncnc2c1c(-c1ccc(Oc3ccccc3)cc1)nn2C1CCN(C(=O)N2CC(N3CCN(c4ccc5c(c4)C(=O)N([C@H]4CCC(=O)NC4=O)C5=O)CC3)C2)CC1 [Compound 483, (S)-5-(4-(1-(4-(4-amino-3-(4-phenoxyphenyl)-1H-pyrazolo[3,4-b]pyrimidin-1-yl)piperidine-1-carbonyl)azetidin-3-yl)piperazin-1-yl)-2-(2,6-dioxopiperidin-3-yl)isoindoline-1,3-dione] | < 1000 | 1 to 10
> 90 | 10 to 50 | – | – | NC(=O)c1c(-c2ccc(Oc3ccccc3)cc2)nn2c1NCCC2C1CCN(C(=O)N2CCN(CC3CCN(c4ccc5c(c4)C(=O)N(C4CCC(=O)NC4=O)C5=O)CC3)CC2)CC1 (stereo not shown) [Compound 273, 7-(1-(4-((1-(2-(2,6-dioxopiperidin-3-yl)-1,3-dioxoisoindolin-5-yl)piperidin-4-yl)methyl)piperazine-1-carbonyl)piperidin-4-yl)-2-(4-phenoxyphenyl)-4,5,6,7-tetrahydropyrazolo[1,5-a]pyrimidine-3-carboxamide] | < 1000 | 1 to 10
> 90 | 10 to 50 | – | – | Nc1ncnc2c1c(-c1ccc(Oc3ccccc3)cc1)nn2C1CCN(CC2CCN(CCC3CCN(c4ccc5c(c4)C(=O)N(C4CCC(=O)NC4=O)C5=O)CC3)CC2)CC1 (stereo not shown) [Compound 201, 5-(4-(2-(4-((4-(4-amino-3-(4-phenoxyphenyl)-1H-pyrazolo[3,4-d]pyrimidin-1-yl)piperidin-1-yl)methyl)piperidin-1-yl)ethyl)piperidin-1-yl)-2-(2,6-dioxopiperidin-3-yl)isoindoline-1,3-dione] | 1000 to 10000 | 1 to 10
> 90 | 10 to 50 | – | – | Nc1ncnc2c1c(-c1ccc(Oc3ccccc3)cc1)nn2C1CCN(C2CCN(C(=O)N3CCC(CCCN4CCN(c5ccc6c(c5)C(=O)N(C5CCC(=O)NC5=O)C6=O)CC4)CC3)CC2)CC1 (stereo not shown) [Compound 263, 5-(4-(3-(1-(4-(4-amino-3-(4-phenoxyphenyl)-1H-pyrazolo[3,4-d]pyrimidin-1-yl)-[1,4′-bipiperidine]-1′-carbonyl)piperidin-4-yl)propyl)piperazin-1-yl)-2-(2,6-dioxopiperidin-3-yl)isoindoline-1,3-dione] | 1000 to 10000 | > 10
